Laboratory results from ChEMBL document CHEMBL3351894, “Development and evaluation of ST-1829 based on 5-benzylidene-2-phenylthiazolones as promising agent for anti-leukotriene therapy” (Eur J Med Chem, 2015).
In brackets after ≈: the same amount, converted by molar mass. Activity calls are given as the source filed them. The rule behind the calls is not given here.

Experiments:
[1] = biological target: T1, Polyunsaturated fatty acid 5-lipoxygenase (Homo sapiens, UniProt P09917); test: Inhibition of 5-LO in human PMNL S100 extract using arachidonic acid as substrate incubated for 15 mins prior to substrate addition measured after 10 mins by HPLC analysis
T1 sequence (P09917 whole entry): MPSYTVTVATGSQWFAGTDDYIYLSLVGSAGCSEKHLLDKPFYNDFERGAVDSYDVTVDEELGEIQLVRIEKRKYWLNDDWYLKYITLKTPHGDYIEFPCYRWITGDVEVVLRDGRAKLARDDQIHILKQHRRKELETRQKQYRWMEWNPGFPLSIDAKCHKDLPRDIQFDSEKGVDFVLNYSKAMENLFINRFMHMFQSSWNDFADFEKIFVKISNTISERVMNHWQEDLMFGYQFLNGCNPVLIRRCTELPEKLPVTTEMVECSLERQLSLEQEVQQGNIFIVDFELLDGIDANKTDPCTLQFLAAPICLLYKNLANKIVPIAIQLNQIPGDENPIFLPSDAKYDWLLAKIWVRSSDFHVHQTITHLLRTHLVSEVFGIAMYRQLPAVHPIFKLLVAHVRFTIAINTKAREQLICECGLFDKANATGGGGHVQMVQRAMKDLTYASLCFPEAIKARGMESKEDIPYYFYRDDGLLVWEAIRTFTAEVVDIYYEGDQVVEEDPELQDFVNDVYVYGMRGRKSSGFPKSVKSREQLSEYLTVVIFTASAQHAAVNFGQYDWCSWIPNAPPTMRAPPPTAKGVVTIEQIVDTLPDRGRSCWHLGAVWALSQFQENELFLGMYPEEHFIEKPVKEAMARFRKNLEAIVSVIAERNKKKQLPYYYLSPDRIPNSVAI

[2] = biological target: T1, Polyunsaturated fatty acid 5-lipoxygenase; test: Inhibition of 5-LO in human PMNL using arachidonic acid as substrate assessed as product formation incubated for 15 mins prior to substrate addition measured after 10 mins by HPLC analysis
[3] = Solubility of the compound in DMSO at RT; type: physicochemical
[4] = Solubility of the compound in PBS at pH 7.4 at RT; type: physicochemical
[5] = biological target: T2, Polyunsaturated fatty acid 5-lipoxygenase (Homo sapiens) (UniProt P09917); test: Inhibition of 5-LO in human PMNL using arachidonic acid as substrate assessed as product formation at 1 to 10 uM incubated for 15 mins prior to substrate addition measured after 10 mins by HPLC analysis in presence of 10% fetal calf serum
T2 sequence (whole entry): T1 sequence (P09917 whole entry)

[6] = biological target: T2, Polyunsaturated fatty acid 5-lipoxygenase (Homo sapiens); test: Reversible inhibition of 5-LO in human PMNL using arachidonic acid as substrate assessed as product formation incubated for 15 mins followed by compound washout measured after 10 mins by HPLC analysis
[7] = Cytotoxicity against human U937 cells assessed as cell viability after 48 hrs by WST-1 assay; type: cell-based; conditions: U-937, 48 h
[8] = Cytotoxicity against human U937 cells at 30 uM after 48 hrs by LDH assay; type: cell-based; conditions: u-937, 48 h
[9] = biological target: T2, Polyunsaturated fatty acid 5-lipoxygenase (Homo sapiens); conditions: 0.01 to 1 uM
Description: Inhibition of 5-LO in human PMNL using arachidonic acid as substrate assessed as product formation at 0.01 to 1 uM incubated for 15 mins prior to substrate addition measured after 10 mins by HPLC analysis in presence of 10% fetal calf serum

[10] = Cytotoxicity against human U937 cells assessed as cell viability at 100 uM after 48 hrs by WST-1 assay; type: cell-based, U-937; conditions: read-out: Activity
[11] = Cytotoxicity against human U937 cells at 100 uM after 48 hrs by LDH assay; type: cell-based; conditions: u-937, 48 h

Row | Structure (SMILES) | IC50 [1] [nM] | IC50 [2] [nM] | also measured
1 | COc1ccc(/C=C2\N=C(c3ccc(C)cc3)NC2=O)cc1 | 7800 | 1950 | 
2 | Cc1ccc(C2=NC(=O)/C(=C/c3[nH]cnc3C)S2)cc1 | 6040 | 14900 | 
3 | COc1ccc(/C=C2\SC(c3cnccn3)=NC2=O)cc1 | 300 | 2870 | 
4 | COc1ccc(/C=C2\SC(c3ccc[n+](C)c3)=NC2=O)cc1 | 4620 | > 30000 | 
5 | Cc1ccc(C2=NC(=O)/C(=C/c3ccc(OCC(=O)N4CCOCC4)cc3)S2)cc1 | 730 | 1660 | solubility [3]: 20 mM (≈ 8450 µg/mL); solubility [4]: 0.05 mM (≈ 21.1 µg/mL)
6 | COc1ccc(/C=C2\SC(c3ccc(C)cc3)N(C)C2=O)cc1 (stereo unspecified) | > 30000 | 940 | 
7 | Cc1ccc(C2=NC(=O)/C(=C/c3cccnc3)S2)cc1 | 280 | 1240 | 
8 | COc1ccc(/C=C2\SC(c3ccc(C)cc3)=NC2=O)cc1 |  |  | solubility [3]: 10 mM (≈ 3090 µg/mL); solubility [4]: 0.03 mM (≈ 9.28 µg/mL); inhibition [5]: inactive; inhibition [6]: Active
9 | Cc1ccc(C2=NC(=O)/C(=C/c3ccc[nH]3)S2)cc1 | 8020 | 1580 | 
10 | COc1ccc(/C=C2\C=C(c3ccc(C)cc3)OC2=O)cc1 | > 30000 | > 30000 | 
11 | COc1ccc(-c2sc(-c3ccc(Cl)cc3)nc2O)cc1 | 50 | 10 | solubility [3]: 50 mM (≈ 15900 µg/mL); solubility [4]: 0.05 mM (≈ 15.9 µg/mL); IC50 [7]: > 30000 nM; Activity [8]: Non-toxic; inhibition [9]: Active
12 | COc1ccc(/C=C2/SC(=S)N(c3ccc(C)cc3)C2=O)cc1 | > 30000 | > 30000 | 
13 | COc1ccc(/C=C2/SC(c3cccc4ccccc34)=NC2=O)cc1 | 80 | 120 | solubility [3]: 10 mM (≈ 3450 µg/mL); solubility [4]: 0.03 mM (≈ 10.4 µg/mL)
14 | Cc1ccc(C2=NC(=O)/C(=C/c3ccc(OCCN4CCOCC4)cc3)S2)cc1 | 520 | 2330 | solubility [3]: 10 mM (≈ 4090 µg/mL); solubility [4]: 0.03 mM (≈ 12.3 µg/mL)
15 | COC(=O)c1ccc(/C=C2\SC(c3ccc(C)cc3)=NC2=O)cc1 | 160 | 690 | 
16 | COc1ccc(/C=C2/SC(c3ccc(Cl)cc3)=NC2=O)cc1 | 80 | 280 | solubility [3]: 15 mM (≈ 4950 µg/mL); solubility [4]: 0.03 mM (≈ 9.89 µg/mL)
17 | CC(c1cc2ccccc2s1)N(O)C(N)=O (stereo unspecified) [ZILEUTON] |  |  | viability at 48 h, 100 µM [10]: 86.5%; Activity [11]: 1.5%
18 | COc1ccc(/C=C2\OC(c3ccc(C)cc3)=NC2=O)cc1 | 1860 | 10500 | 
19 | COc1ccc(/C=C2\SC(c3ccncc3)=NC2=O)cc1 | 440 | 2990 | 
20 | Cc1ccc(C2=NC(=O)/C(=C/c3ccc(N)cc3)S2)cc1 | 580 | 1330 | 
21 | Cc1ccc(C2=NC(=O)/C(=C/c3ccc(O)cc3)S2)cc1 | 330 | 1130 | solubility [3]: 50 mM (≈ 14800 µg/mL); solubility [4]: 0.03 mM (≈ 8.86 µg/mL)
22 | COc1ccc(/C=C/C=C2\SC(c3ccc(C)cc3)=NC2=O)cc1 | 350 | 220 | 
23 | Cc1ccc(C2=NC(=O)/C(=C/c3ccc(S(C)(=O)=O)cc3)S2)cc1 | 190 | 5290 | 
24 | COc1ccc(-c2sc(-c3ccc(C)cc3)nc2O)cc1 | 170 | 430 | solubility [3]: 50 mM (≈ 14900 µg/mL); solubility [4]: 0.05 mM (≈ 14.9 µg/mL)

Row | Structure (SMILES) | IC50 [1] [nM] | IC50 [2] [nM] | also measured
25 | Cc1ccc(C2=NC(=O)/C(=C/c3cccc(S(N)(=O)=O)c3)S2)cc1 | 250 | 1440 | solubility [3]: 30 mM (≈ 10800 µg/mL); solubility [4]: 0.08 mM (≈ 28.7 µg/mL)
26 | Cc1ccc(C2=NC(=O)/C(=C/c3ncc[nH]3)S2)cc1 | 2690 | 6090 | 
27 | COC1CCC(=Cc2sc(-c3ccc(C)cc3)nc2O)CC1 (stereo unspecified) | 590 | 1560 | 
28 | Cc1ccc(-c2nc(O)c(C=C3CCCCC3)s2)cc1 | 350 | 790 | 
29 | COc1ccc(/C=C2\C=C(c3ccc(C)cc3)NC2=O)cc1 | 11800 | 10300 | 
30 | COC(=O)/C=C/c1ccc(/C=C2\SC(c3ccc(C)cc3)=NC2=O)cc1 | 180 | 3610 | 
31 | CCCCCC(O)c1cccc(OCc2ccc3ccccc3n2)c1 (stereo unspecified) [REV-5901] |  |  | viability at 48 h, 100 µM [10]: < 1%; Activity [11]: 22.5%
32 | COc1ccc(-c2sc(-c3ccc(C)cc3)nc2C)cc1 | > 30000 | 1500 | 
33 | CC(=O)c1ccc(/C=C2\SC(c3ccc(C)cc3)=NC2=O)cc1 | 160 | 580 | 
34 | Cc1ccc(C2=NC(=O)/C(=C/C34CC5CC(CC(C5)C3)C4)S2)cc1 | 120 | 410 | 
35 | COc1ccc(/N=C2\SC(c3ccc(C)cc3)=NC2=O)cc1 | 8220 | 10300 | 
36 | COc1ccc(/C=C2\SC(c3cccnc3)=NC2=O)cc1 | 960 | 2660 | 
37 | Cc1ccc(C2=NC(=O)/C(=C/c3ccc(OC(=O)N4CCOCC4)cc3)S2)cc1 | 330 | 740 | solubility [3]: 10 mM (≈ 4080 µg/mL); solubility [4]: 0.05 mM (≈ 20.4 µg/mL)
38 | Cc1ccc(C2=NC(=O)/C(=C/c3ccc(N4CCOCC4)cc3)S2)cc1 | 1070 | 3650 | solubility [3]: 10 mM (≈ 3640 µg/mL); solubility [4]: 0.01 mM (≈ 3.64 µg/mL)
39 | Cc1ccc(C2=NC(=O)/C(=C/c3c[nH]c4ccccc34)S2)cc1 | > 3000 | 1070 | 
40 | Cc1ccc(C2=NC(=O)/C(=C/c3ccncc3)S2)cc1 | 330 | 2190 | 
41 | Cc1ccc(C2=NC(=O)/C(=C/c3cccs3)S2)cc1 | 860 | 980 | 
42 | COc1ccc(/C=C2\N=C(c3ccc(C)cc3)OC2=O)cc1 | > 30000 | > 30000 | 
43 | COc1ccc(NC2(OC)SC(c3ccc(C)cc3)=NC2=O)cc1 (stereo unspecified) | > 30000 | > 30000 | 
44 | COc1ccc(/C=C2\S/C(=N/c3ccc(C)cc3)NC2=O)cc1 | > 30000 | 2900 | 
45 | COc1ccc(C(=C2SC(c3ccc(C)cc3)=NC2=O)c2ccc(OC)cc2)cc1 | 6150 | 8550 | 
46 | COc1ccc(Cc2sc(-c3ccc(C)cc3)nc2O)cc1 | 200 | 720 | solubility [3]: 100 mM (≈ 31100 µg/mL); solubility [4]: 0.08 mM (≈ 24.9 µg/mL)
47 | Cc1ccc(C2=NC(=O)/C(=C/c3ccc(C(=O)O)cc3)S2)cc1 | 1460 | 8360 | 
